Where two headings read alike, the source gives them in different places.
Experiments:
SARS-CoV-2 Mpro = molecular target: T1, SARS-CoV-2 Mpro (Severe acute respiratory syndrome coronavirus 2, UniProt P0DTD1); experiment: In vitro anti-novel coronavirus Mpro protease activity (fluorogenic substrate); format: biochemical; conditions: 25 nM Mpro, 25 μM substrate, 30 min pre-incubation
T1 construct: SARS-CoV-2 Mpro; purchased WuXi AppTec
Method: The compound was dissolved in DMSO, and diluted in a 3-fold gradient with Echo655 according to the concentration requirements to 10 concentration points, and duplicate tests were set at each concentration, and the diluted solution was added to a 384-well plate. Mpro protein and substrate were diluted with test buffer (100 mM NaCl, 20 mM Tris-HCl, 1 mM EDTA), and Mpro protein was added to the 384-well test plate, incubated with the compound for 30 min at room temperature, and then the substrate was added thereto, and the test concentration of Mpro protein was 25 nM, and the test concentration of substrate was 25 μM. After incubating for 60 minutes in a 30° C. constant temperature incubator, the fluorescence signal value of Ex/Em=340 nm/490 nm was detected by microplate reader. At the same time, the background well containing the substrate and compound but not containing Mpro protein was detected as control.
1) The inhibition rate was calculated using the following formula:
Inhibition rate %=[(compound-BGcompound)−(ZPE-BGZPE)]/[(HPE-BGHPE)−(ZPE-BGZPE)]*100%
ZPE: No-inhibition control, containing 25 nM Mpro protein+25 μM substrate, not containing compound
Compound: Test compound well, containing 25 nM Mpro protein+25 μM substrate+compound
BG: Background control well, containing 25 μM substrate+compound, not containing Mpro protein
2) Log (agonist) vs. response—variable slope nonlinear fitting analysis was carried out on the inhibition rate data (inhibition rate %) of the compound by using GraphPad Prism software, and the IC50 value of the compound was obtained.

[1] = Pharmacokinetics test of mice; format: in vivo, C57BL/6J male mice; conditions: mouse, plasma
Method: In this study, C57BL/6J male mice were selected as test animals, and LC/MS/MS method was used to quantitatively measure the plasma concentration of the test compound 11 at different time points after oral administration and injection in mice, so as to evaluate the pharmacokinetic characteristics of the test drug in mice.
The test compound dissolved in 30% PEG400+70% normal saline was administered to mice (overnight fasting, 6-8 weeks old) by intragastric administration. 25 μL of blood was collected at 0.083, 0.25, 0.5, 1, 2, 4, 8, 12 and 24 hours after administration, respectively, and placed in commercial anticoagulation tubes pre-added with EDTA-K2, centrifuged at 4° C., 3200 g for 10 min to obtain plasma, and after the plasma sample was treated, the plasma concentration was determined by LC-MS/MS method.

[2] = Pharmacokinetic test in combination with Ritonavir in mice; format: in vivo, C57BL/6J male mice; conditions: mouse, plasma, po, 10 mg/kg, p.o. 10 mpk
Method: In this study, C57BL/6J male mice were selected as test animals, and the LC/MS/MS method was used to quantitatively measure the plasma concentrations of mice in combination with Ritonavir at different time points, so as to evaluate the pharmacokinetic characteristics of the test drug in mice.
Firstly, 10 mpk of Ritonavir was administered to mice by intragastric administration at −12 h and 0 h, and then the test compound was dissolved in 30% PEG400+70% normal saline solution and administered to mice by intragastric administration (overnight fasting, 6 to 8 weeks old). 25 μL of blood was collected at 0.083, 0.25, 0.5, 1, 2, 4, 8, 12 and 24 hours after administration to animals, placed in a commercial anticoagulant tube pre-added with EDTA-K2, and centrifuged at 4° C., 3200 g for 10 min to obtain plasma. After the plasma samples were treated, the plasma concentration was determined by LC-MS/MS method.

[3] = Tissue distribution test in rats (after Ritonavir); format: in vivo, SD male rats; conditions: rat, po, 30 mg/kg, with Ritonavir
Method: In this study, SD male rats were selected as test animals, and the drug concentrations of test compounds in plasma and lungs of rats at different time points were quantitatively measured by LC/MS/MS method to evaluate the pharmacokinetic characteristics of test drugs in rats.
Firstly, 10 mpk of Ritonavir was administered to rats by intragastric administration at −12 h and 0 h, and 30 mpk of the test compound was dissolved in 10% Solutol+30% PEG 400+2% Tween 80+H2O 58% solution and administered to rats by intragastric administration (overnight fasting). 40 μL of blood was collected from the saphenous vein of rats at 0.25, 1 and 6 hours after administration, placed in an anticoagulant tube added with EDTA-K2, centrifuged at 4° C., 3200 g for 10 min to obtain plasma, and some animals were killed at 0.25, 1 and 6 hours respectively to collect lung tissue. After the plasma samples were treated, the plasma concentration was determined by LC-MS/MS method.

For `N#C[C@H](C[C@@H]1CCNC1=O)NC(=O)[C@@H]1[C@H]2CC[C@H](C2)N1C(=O)[C@@H](NC(=O)C(F)(F)F)C12CC3CC(CC(F)(C3)C1)C2` [Compound 9], the IC50 (SARS-CoV-2 Mpro) was 25 nM.
In the case of `CC(C)(C)[C@H](NC(=O)C(F)(F)F)C(=O)N1[C@H]2C[C@@H]([C@H]1C(=O)N[C@H](C#N)C[C@@H]1CCNC1=O)C1(CC1)C2` [Compound 11], the AUC(0-t) ([1]; iv, 3 mg/kg, i.v. 3 mpk) is reported as 1.45 µM·h, the clearance ([1]; iv, 3 mg/kg, i.v. 3 mpk) is reported as 68.5 mL/min/kg and the half-life ([1]; iv, 3 mg/kg, i.v. 3 mpk) is reported as 12 min. The Vd ([1]; iv, 3 mg/kg, i.v. 3 mpk, read-out: Vdss) was 0.9 L/kg, the AUC(0-t) ([1]; po, 10 mg/kg, p.o. 10 mpk) was 1.52 µM·h and the Tmax ([1]; po, 10 mg/kg, p.o. 10 mpk) was 15 min. It also gave a Cmax ([1]; po, 10 mg/kg, p.o. 10 mpk) of 1.85 µM, an AUC(0-t) ([2]; with Ritonavir 10 mpk) of 28.7 µM·h and a Tmax ([2]; with Ritonavir 10 mpk) of 30 min. It also gave a Cmax ([2]; with Ritonavir 10 mpk at −12 h and 0 h) of 10.1 µM, a Kp at 0.25 h ([3]; lung, 0.25 h, given as x/1, read-out: Lung/plasma ratio at 0.25 h) of 5.5 and a Kp at 1 h ([3]; lung, 1 h, given as x/1, read-out: Lung/plasma ratio at 1 h) of 3.2. The Kp at 6 h ([3]; lung, 6 h, given as x/1, read-out: Lung/plasma ratio at 6 h) was 1.6, the Kp at 6 h ([3]; lung, given as x/1, read-out: Lung/plasma ratio of AUC(0-6 h)) was 2.6 and the concentration at 0.25 h ([3]; 30 mpk intragastric, lung, 0.25 h, read-out: Lung concentration at 0.25 h) was 15.8 µM. The concentration at 1 h ([3]; 30 mpk intragastric, lung, 1 h, read-out: Lung concentration at 1 h) was 18.4 µM, the concentration at 6 h ([3]; 30 mpk intragastric, lung, 6 h, read-out: Lung concentration at 6 h) was 7.85 µM and the AUC at 6 h ([3]; 30 mpk intragastric, lung, read-out: Lung AUC(0-6 h)) was 76.8 µM·h. The AUC(0-t) at 6 h ([3]; 30 mpk intragastric, plasma) was 29.4 µM·h, the concentration at 0.25 h ([3]; 30 mpk intragastric, plasma, 0.25 h, read-out: Plasma concentration at 0.25 h) was 2.86 µM and the concentration at 1 h ([3]; 30 mpk intragastric, plasma, 1 h, read-out: Plasma concentration at 1 h) was 5.49 µM. The concentration at 6 h ([3]; 30 mpk intragastric, plasma, 6 h, read-out: Plasma concentration at 6 h) was 4.88 µM.
Compound `CC(C)(C)[C@H](NC(=O)C(F)(F)F)C(=O)N1C[C@@H]2C3C=CC(C3)[C@@H]2[C@H]1C(=O)N[C@H](C#N)C[C@@H]1CCNC1=O` (single isomer, unassigned) [Compound 28A] has an IC50 (SARS-CoV-2 Mpro) of 2.6 nM.
`CC(C)(C)[C@H](NC(=O)C(F)(F)F)C(=O)N1C[C@@H]2C3CCC(C3)[C@@H]2[C@H]1C(=O)N[C@H](C#N)C[C@@H]1CCNC1=O` (single isomer, unassigned) [Compound 29-1] showed an IC50 (SARS-CoV-2 Mpro) of 264 nM.
With `CC(C)(C)[C@H](NC(=O)C(F)(F)F)C(=O)N1C[C@@H]2C3CCC(C3)[C@@H]2[C@H]1C(=O)N[C@H](C#N)C[C@@H]1CCNC1=O` (single isomer, unassigned) [Compound 29-2] the IC50 (SARS-CoV-2 Mpro) was 11 nM.
For `CC(C)(C)[C@H](NC(=O)C(F)(F)F)C(=O)N1C[C@@H]2C3C=CC(C3)[C@@H]2[C@H]1C(=O)N[C@H](C#N)C[C@@H]1CCNC1=O` (single isomer, unassigned) [Compound 28], the IC50 (SARS-CoV-2 Mpro) was 31 nM.
